# Target: purified recombinant human GAC (GLS1) (Homo sapiens (Human), UniProt O94925)
# Assay: GLS1 Enzymatic Activity Assay (dual-coupled enzymatic assay, resorufin/Amplex UltraRed readout);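 further: glutamate from GAC coupled via glutamate oxidase and peroxidase to resorufin, read as fluorescence (ex 530, em 590 nm) kinetically or at 20 min, four-parameter logistic IC50 fit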
# Assay type: biochemical
# Sequence of purified recombinant human GAC (GLS1) (O94925 other isoform, or with tags, fused parts or gaps): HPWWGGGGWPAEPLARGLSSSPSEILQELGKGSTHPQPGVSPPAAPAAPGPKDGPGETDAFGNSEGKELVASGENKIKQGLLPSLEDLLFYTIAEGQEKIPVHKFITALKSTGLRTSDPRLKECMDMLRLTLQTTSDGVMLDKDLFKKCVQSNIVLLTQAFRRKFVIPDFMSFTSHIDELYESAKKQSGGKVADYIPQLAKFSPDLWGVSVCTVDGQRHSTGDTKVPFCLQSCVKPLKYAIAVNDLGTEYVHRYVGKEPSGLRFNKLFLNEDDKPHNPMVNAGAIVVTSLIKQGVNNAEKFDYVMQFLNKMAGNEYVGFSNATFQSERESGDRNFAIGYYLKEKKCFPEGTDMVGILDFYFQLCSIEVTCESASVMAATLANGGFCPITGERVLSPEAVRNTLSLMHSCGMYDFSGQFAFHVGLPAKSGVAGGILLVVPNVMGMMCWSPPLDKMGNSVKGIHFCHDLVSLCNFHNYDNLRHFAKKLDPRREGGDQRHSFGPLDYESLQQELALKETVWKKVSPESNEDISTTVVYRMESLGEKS
row,IC50 [nM],SMILES
1,500 to 5000,"CS(=O)(=O)NCc1cn(CCCCn2cc(C(=O)NCc3cccc(OC(F)(F)F)c3)nn2)nn1 [Example 9, 1-(4-(4-(Methylsulfonamidomethyl)-1H-1,2,3-triazol-1-yl)butyl)-N-(3-(trifluoromethoxy)benzyl)-1H-1,2,3-triazole-4-carboxamide]"
2,500 to 5000,"CC(C)NC(=O)c1nnc(CCCCn2cc(C(=O)NCc3ccccc3)nn2)s1 [Example 38, 5-{4-[4-(benzylcarbamoyl)-1H-1,2,3-triazol-1-yl]butyl}-N-(propan-2-yl)-1,3,4-thiadiazole-2-carboxamide]"
3,100 to 500,"O=C(NCc1ccccc1)c1cn(CCCCc2nnc(C(=O)NCc3ccccn3)s2)nn1 [Example 40, 5-{4-[4-(benzylcarbamoyl)-1H-1,2,3-triazol-1-yl]butyl}-N-(pyridin-2-ylmethyl)-1,3,4-thiadiazole-2-carboxamide]"
4,100 to 500,"Cc1ccc(CNC(=O)c2nnc(CCCCn3cc(C(=O)NCc4ccccn4)nn3)s2)cn1 [Example 67, N-[(6-methylpyridin-3-yl)methyl]-5(4-{4-[(pyridin-2-ylmethyl)carbamoyl]-1H-1,2,3-triazol-1-yl}butyl)-1,3,4-thiadiazole-2-carboxamide]"
5,500 to 5000,"O=C(NCc1ccccn1)c1cn(CCCCn2cc(C(=O)NCc3ccccn3)nn2)nn1 [Example 71, N-(pyridin-2-ylmethyl)-1-(4-{4-[(pyridin-2-ylmethyl)carbamoyl]-1H-1,2,3-triazol-1-yl}butyl)-1H-1,2,3-triazole-4-carboxamide]"
6,500 to 5000,"O=C(CC1CCCC1)Nc1cn(CCCCn2cc(C(=O)NCC3CCCCC3)nn2)nn1 [Example 282, N-(cyclohexylmethyl)-1-{4-[4-(2-cyclopentylacetamido)-1H-1,2,3-triazol-1-yl]butyl}-1H-1,2,3-triazole-4-carboxamide]"
7,500 to 5000,"O=C(CC1CCCCC1)Nc1cn(CCCCn2cc(C(=O)NCC3CCCC3)nn2)nn1 [Example 289, 1-{4-[4-(2-cyclohexylacetamido)-1H-1,2,3-triazol-1-yl]butyl}-N-(cyclopentylmethyl)-1H-1,2,3-triazole-4-carboxamide]"
8,500 to 5000,"O=C(Cc1cccnc1)Nc1cn(CCCCn2cc(C(=O)NCC3CCCC3)nn2)nn1 [Example 290, N-(cyclopentylmethyl)-1-(4-{4-[2-(pyridin-3-yl)acetamido]-1H-1,2,3-triazol-1-yl}butyl)-1H-1,2,3-triazole-4-carboxamide]"
9,500 to 5000,"O=C(Cc1ccccn1)Nc1cn(CCCCn2cc(C(=O)NCC3CCCC3)nn2)nn1 [Example 291, N-(cyclopentylmethyl)-1-(4-{4-[2-(pyridin-2-yl)acetamido]-1H-1,2,3-triazol-1-yl}butyl)-1H-1,2,3-triazole-4-carboxamide]"
10,500 to 5000,"O=C(Cc1ccccn1)Nc1cn(CCCCn2cc(C(=O)NCc3ccccn3)nn2)nn1 [Example 297, 1-[4-[4-[[2-(2-pyridyl)acetyl]amino]triazol-1-yl]butyl]-N-(2-pyridylmethyl)triazole-4-carboxamide]"
11,500 to 5000,"O=C(Cc1cccnc1)Nc1cn(CCCCn2cc(C(=O)NCC3CC3)nn2)nn1 [Example 303, N-(cyclopropylmethyl)-1-(4-{4-[2-(pyridin-3-yl)acetamido]-1H-1,2,3-triazol-1-yl}butyl)-1H-1,2,3-triazole-4-carboxamide]"
12,500 to 5000,"O=C(CC1CCCC1)Nc1cn(CCCCn2cc(C(=O)NCC3CC3)nn2)nn1 [Example 304, 1-{4-[4-(2-cyclopentylacetamido)-1H-1,2,3-triazol-1-yl]butyl}-N-(cyclopropylmethyl)-1H-1,2,3-triazole-4-carboxamide]"

# The next lines start with the molecule.
row,SMILES,IC50 [nM]
1,"CC(C)(C)OC(=O)N1CCC(Cn2cc(CCCCn3cc(C(=O)NCc4cccc(OC(F)(F)F)c4)nn3)nn2)CC1 [Example 8, Tert-butyl 4-((4-(4-(4-(3-(trifluoromethoxy)benzylcarbamoyl)-1H-1,2,3-triazol-1-yl)butyl)-1H-1,2,3-triazol-1-yl)methyl)piperidine-1-carboxylate]",100 to 500
2,"CC(C)NC(=O)c1cn(CCCCc2nnc(NC(=O)Cc3cccc(OC(F)(F)F)c3)s2)nn1 [Example 10, N-(propan-2-yl)-1-[4-(5-{2-[3-(trifluoromethoxy)phenyl]acetamido}-1,3,4-thiadiazol-2-yl)butyl]-1H-1,2,3-triazole-4-carboxamide]",100 to 500
3,"O=C(Cc1ccccc1)Nc1nnc(CCCCn2cc(C(=O)NCCN3CCC(O)CC3)nn2)s1 [Example 14, N-[2-(4-hydroxypiperidin-1-yl)ethyl]-1-{4-[5-(2-phenylacetamido)-1,3,4-thiadiazol-2-yl]butyl}-1H-1,2,3-triazole-4-carboxamide]",500 to 5000
4,CC(C)(C)OC(=O)N1CCC(Cn2cc(CCCCn3cc(C(=O)NCc4cccc(OC(F)(F)F)c4)nn3)nn2)CC1 [Example 53],500 to 5000
5,"CC(C)CCNCc1cn(CCCCn2cc(C(=O)NCc3cccc(OC(F)(F)F)c3)nn2)nn1 [Example 57, 1-(4-(4-((isopentylamino)methyl)-1H-1,2,3-triazol-1-yl)butyl)-N-(3-(trifluoromethoxy)benzyl)-1H-1,2,3-triazole-4-carboxamide]",500 to 5000
6,"CCC(=O)NCc1cn(CCCCn2cc(C(=O)NCc3cccc(OC(F)(F)F)c3)nn2)nn1 [Example 58, 1-(4-(4-(propionamidomethyl)-1H-1,2,3-triazol-1-yl)butyl)-N-(3-(trifluoromethoxy)benzyl)-1H-1,2,3-triazole-4-carboxamide]",500 to 5000
7,"O=C(NCc1ccccn1)c1cn(CCCCc2nnc(C(=O)NCc3ccccn3)s2)nn1 [Example 66, N-(pyridin-2-ylmethyl)-5-(4-{4-[(pyridin-2-ylmethyl)carbamoyl)-1H-1,2,3-triazol-1-yl}butyl)-1,3,4-thiadiazole-2-carboxamide]",500 to 5000
8,"O=C(NCc1ccccn1)c1cn(CCCCc2nnc(C(=O)NCC3CC3)s2)nn1 [Example 68, N-(cyclopropylmethyl)-5-(4-{4-[(pyridin-2-ylmethyl)carbamoyl]-1H-1,2,3-triazol-1-yl}butyl)-1,3,4-thiadiazole-2-carboxamide]",500 to 5000
9,"O=C(NCC1CC1)c1cn(CCCCc2nnc(C(=O)NCc3ccccn3)s2)nn1 [Example 69, 5-(4-{4-[(cyclopropylmethyl)carbamoyl]-1H-1,2,3-triazol-1-yl}butyl)-N-(pyridin-2-ylmethyl)-1,3,4-thiadiazole-2-carboxamide]",500 to 5000
10,"Cc1ccc(CNC(=O)c2nnc(CCCCn3cc(C(=O)NCC4CC4)nn3)s2)cn1 [Example 70, 5-(4-{4-[(cyclopropylmethyl)carbamoyl]-1H-1,2,3-triazol-1-yl}butyl)-N-[(6-methylpyridin-3-yl)methyl]-1,3,4-thiadiazole-2-carboxamide]",500 to 5000
11,"Cc1ccc(CNC(=O)c2cn(CCCCc3nnc(C(=O)NCC4CN(C(=O)OC(C)(C)C)C4)s3)nn2)cn1 [Example 74, tert-butyl 3-[({5-[4-(4-{[(6-methylpyridin-3-yl)methyl]carbamoyl}-1H-1,2,3-triazol-1-yl)butyl]-1,3,4-thiadiazol-2-yl}formamido)methyl] azetidine-1-carboxylate]",100 to 500
12,"O=C(CC1CC1)Nc1cn(CCCCn2cc(C(=O)NCc3ccccn3)nn2)nn1 [Example 278, 1-{4-[4-(2-cyclopropylacetamido)-1H-1,2,3-triazol-1-yl]butyl}-N-(pyridin-2-ylmethyl)-1H-1,2,3-triazole-4-carboxamide]",500 to 5000
13,"O=C(CC1CC1)Nc1cn(CCCCn2cc(C(=O)NCC3CCCCC3)nn2)nn1 [Example 281, N-(cyclohexylmethyl)-1-{4-[4-(2-cyclopropylacetamido)-1H-1,2,3-triazol-1-yl]butyl}-1H-1,2,3-triazole-4-carboxamide]",500 to 5000
14,"O=C(CC1CCCCC1)Nc1cn(CCCCn2cc(C(=O)NCC3CCCCC3)nn2)nn1 [Example 283, 1-{4-[4-(2-cyclohexylacetamido)-1H-1,2,3-triazol-1-yl]butyl}-N-(cyclohexylmethyl)-1H-1,2,3-triazole-4-carboxamide]",500 to 5000
15,"O=C(CC1CC1)Nc1cn(CCCCn2cc(C(=O)NCC3CCCC3)nn2)nn1 [Example 287, N-(cyclopentylmethyl)-1-{4-[4-(2-cyclopropylacetamido)-1H-1,2,3-triazol-1-yl]butyl}-1H-1,2,3-triazole-4-carboxamide]",500 to 5000
16,"O=C(Cc1cccnc1)Nc1cn(CCCCn2cc(C(=O)NCc3ccccn3)nn2)nn1 [Example 298, N-(pyridin-2-ylmethyl)-1-(4-{4-[2-(pyridin-3-yl)acetamido]-1H-1,2,3-triazol-1-yl}butyl)-1H-1,2,3-triazole-4-carboxamide]",500 to 5000
17,"O=C(Cc1ccccn1)Nc1cn(CCCCn2cc(C(=O)NCC3CC3)nn2)nn1 [Example 302, N-(cyclopropylmethyl)-1-(4-{4-[2-(pyridin-2-yl)acetamido]-1H-1,2,3-triazol-1-yl}butyl)-1H-1,2,3-triazole-4-carboxamide]",500 to 5000
18,"O=C(CC1CC1)Nc1cn(CCCCn2cc(C(=O)NCc3cccnc3)nn2)nn1 [Example 308, 1-{4-[4-(2-cyclopropylacetamido)-1H-1,2,3-triazol-1-yl]butyl}-N-(pyridin-3-ylmethyl)-1H-1,2,3-triazole-4-carboxamide]",500 to 5000
19,"O=C(CN1CC(F)(F)C1)Nc1cn(CCCCn2cc(C(=O)NCc3ccccn3)nn2)nn1 [Example 323, 1-(4-{4-[2-(3,3-difluoroazetidin-1-yl)acetamido]-1H-1,2,3-triazol-1-yl}butyl)-N-(pyridin-2-ylmethyl)-1H-1,2,3-triazole-4-carboxamide]",500 to 5000
20,"O=C(CN1CC(F)C1)Nc1cn(CCCCn2cc(C(=O)NCc3ccccn3)nn2)nn1 [Example 324, 1-(4-{4-[2-(3-fluoroazetidin-1-yl)acetamido]-1H-1,2,3-triazol-1-yl}butyl)-N-(pyridin-2-ylmethyl)-1H-1,2,3-triazole-4-carboxamide]",500 to 5000
21,"O=C(CN1CCC(F)(F)C1)Nc1cn(CCCCn2cc(C(=O)NCc3ccccn3)nn2)nn1 [Example 325, 1-(4-{4-[2-(3,3-difluoropyrrolidin-1-yl)acetamido]-1H-1,2,3-triazol-1-yl}butyl)-N-(pyridin-2-ylmethyl)-1H-1,2,3-triazole-4-carboxamide]",500 to 5000

# Reference: patent US10344025B2, “GLS1 inhibitors for treating disease” (Board of Regents, The University of Texas System, priority 2014, dated 2019)
